Laboratory results from patent US20220267271A1, “WNT ACTIVATORS AND METHODS OF USE” (MAYO FOUNDATION FOR MEDICAL EDUCATION AND RESEARCH, priority 2019, published 2022).

Key:
[1] = tested on: LRP6; test: HA-LRP6 expression in HT1080 cells stably transduced with HA-LRP6, Western blot; assay type: cell-based, human; details: HT1080 cells stably transduced with HA-LRP6, 24 h
Method: (A) structures of niciosamide and CI-994; (B) HEK293 cells were transfected with Super8XTOPFlash and β galactosidase vectors along with Wnt3A or control vector. After 24 hours incubation, cells were treated with CI-994 at the indicated concentration for 24 hr. The luciferase activity was then measured and normalized to the activity of the β-galactosidase. (C) HT1080 cells stably transduced LRP6 with HA tag were treated with niciosamide and CI-994 at the indicated concentrations for 24 h. The levels of HA-LRP6 were examined by Western blot with anti-HA antibody. (D) Western blots showing the depletion of LRP6 after 2 days of transiently transfection of 50 nM LRP6 siRNA in HEK293 cells. […] The luciferase activity was then measured and normalized to β-galactosidase activity. […]
(A) HT1080 cells stably transduced with human LRP6 with HA tag were treated with niciosamide (1 μM) and other compounds as noted (1 μM) for 24 hr. […] The luciferase activity was then measured and normalized to β-galactosidase activity. […]
Western blotting: Cells in 6-well plates were lysed in 0.5 ml of lysis buffer (phosphate-buffered saline containing 1% Triton X-100, 1× Proteinase inhibitor cocktail Complete, and 1 mM PMSF) at 4° C. for 15 min. Equal quantities of protein were subjected to SDS-PAGE under reducing conditions. […]

[2] = tested on: β-catenin; test: Cytosolic free β-catenin level in HEK293 cells; assay type: cell-based
Description: Niclosamide (5-chloro-N-[2-chloro-4-nitrophenyl]-2-hydroxy benzamide), an FDA approved antihelminthic drug, suppresses Wnt/β-catenin signaling by inducing Wnt co-receptor LRP6 degradation in cancer cells. […] CI-994 is an orally active class I histone deacetylase (HDAC) inhibitor [37]. CI-994 increased Wnt reporter activity (FIG. 2B) and cytosolic free β-catenin level in HEK293 cells.

[3] = tested on: tau; test: Tau phosphorylation in human iPSC-derived neurons (Western blot AT8/HT7); assay type: cell-based; details: 0.4 μM, 48 h
Method: Human iPSC-derived neurons were treated with 1015 (0.4 μM) for 48 h, and the mRNA levels of axin2 (B), neuroD1 (C) and SOX2 (D) were determined by qPCR. All the values are the average of three independent experiments with the SE values indicated by error bars. * P<0.05, ** P<0.01 verse corresponding control. (E) Human iPSC-derived neurons were treated with 1015 (0.4 μM) for 48 h, and the levels of phopspho-tau (p-tau) and total tau were determined by Western blotting with specific antibodies AT8 and HT7, respectively. This experiment is a representative of two such experiments performed with similar data.
NeuroD1, a proneural basic helix-loop-helix (bHLH) transcription factor, plays a critical role in CNS development, and is important for survival of neuronal progenitor cells. There is a TCF/LEF regulatory element in the Neurod1 promoter, and NeuroD1 is a specific target of Wnt/β-catenin signaling. […] In addition, 1015 also induces neural stem cell marker SOX2 expression in human iPSC-derived neurons ([…]). Importantly, 1015 suppresses tau phosphorylation in human iPSC-derived neurons (FIG. 16 at D).

SMILES | HA-LRP6 expression [1] | cytosolic free β-catenin level [2] | tau phosphorylation [3]
CC(=O)Nc1ccc(C(=O)Nc2ccccc2N)cc1 [CI-994, 4-(acetylamino)-N-(2-aminophenyl)benzamide, reference compound] | significantly enhanced | increased | –
Nc1ccccc1NC(=O)c1ccc(C(=O)NCC2CCN2C2CCCC2)cn1 (stereo not drawn) [Compound 1015] | – | – | suppresses
